According to PMC8733726, “Dioctanoyl Ultrashort Tetrabasic β-Peptides Sensitize Multidrug-Resistant Gram-Negative Bacteria to Novobiocin and Rifampicin” (Frontiers in Microbiology, 2021):
Values after ≈ are worked out from the molar mass of the structure shown. Like-named read-outs stand apart in the source and are kept apart here.

How the values were obtained:
[1] = test system: MDR K. pneumoniae clinical isolates; assay: Resistance phenotype (MICs of antibiotics) of MDR clinical isolates; assay type: cell-based, Klebsiella pneumoniae; conditions: Klebsiella pneumoniae
[2] = test system: MDR P. aeruginosa clinical isolates; assay: as above; assay type: cell-based, Pseudomonas aeruginosa; conditions: Pseudomonas aeruginosa
[3] = test system: MDR A. baumannii clinical isolates; assay: as above; assay type: cell-based, Acinetobacter baumannii; conditions: Acinetobacter baumannii
[4] = test system: wild-type P. aeruginosa PAO1; assay: microbe, parasite or virus in culture; assay type: cell-based, Pseudomonas aeruginosa; conditions: PAO1; for MICcombo: antibiotic with dUSTBβP 3 at 8 μg/mL; for MIC: Pseudomonas aeruginosa, 18 h, antibiotic alone (Supplementary Table 7), read-out: MICantibiotic
Description: (§1) Overnight-grown bacterial culture diluted in saline to 0.5 McFarland turbidity was successively diluted 1:50 in MHB to achieve a final concentration of 5 × 10^5 CFU/mL for inoculation. The antibiotic and adjuvant were serially diluted 2-fold along the x-axis and y-axis, respectively, resulting in varying concentrations of both agents in each well. […] Confirmation of turbidity was done using an EMax Plus microplate reader (Molecular Devices, United States) at a wavelength of 590 nm. Wells comprising MHB alone or in the presence of bacterial cells were used as negative or positive controls, respectively. Fractional inhibitory concentration index (FICI) is determined by adding the FICs of both antibiotic and adjuvant. The FIC of the antibiotic is calculated by dividing the MIC of the antibiotic in the presence of the adjuvant by the MIC of the antibiotic alone. Similarly, the FIC of the adjuvant is calculated by dividing the MIC of the adjuvant in the presence of the antibiotic by the MIC of the adjuvant alone.

[5] = test system: wild-type E. coli ATCC 25922; assay: microbe, parasite or virus in culture; assay type: cell-based, Escherichia coli; conditions: ATCC 25922; for MICcombo: antibiotic with dUSTBβP 3 at 8 μg/mL; for MIC: Escherichia coli, ATCC25922, 18 h, antibiotic alone (Supplementary Table 7), read-out: MICantibiotic
Protocol: The adjuvant activities of dUSTBβPs were evaluated using checkerboard assay as previously described ([Berry et al., 2019]). Overnight-grown bacterial culture diluted in saline to 0.5 McFarland turbidity was successively diluted 1:50 in MHB to achieve a final concentration of 5 × 10^5 CFU/mL for inoculation. The antibiotic and adjuvant were serially diluted 2-fold along the x-axis and y-axis, respectively, resulting in varying concentrations of both agents in each well. Subsequently, the 96-well plate was incubated with equal volumes of bacterial inoculum at 37°C for 18 h. Confirmation of turbidity was done using an EMax Plus microplate reader (Molecular Devices, United States) at a wavelength of 590 nm. Wells comprising MHB alone or in the presence of bacterial cells were used as negative or positive controls, respectively. Fractional inhibitory concentration index (FICI) is determined by adding the FICs of both antibiotic and adjuvant. The FIC of the antibiotic is calculated by dividing the MIC of the antibiotic in the presence of the adjuvant by the MIC of the antibiotic alone. Similarly, the FIC of the adjuvant is calculated by dividing the MIC of the adjuvant in the presence of the antibiotic by the MIC of the adjuvant alone. FICI ≤ 0.5, 0.5 < x ≤ 4, and >4 were deemed synergistic, additive, and antagonistic, respectively ([Meletiadis et al., 2010]).

[6] = test system: wild-type A. baumannii ATCC 17978; assay: Checkerboard assay; assay type: cell-based, Acinetobacter baumannii; conditions: ATCC 17978; for MICcombo: antibiotic with dUSTBβP 3 at 8 μg/mL; for MIC: Acinetobacter baumannii, ATCC17978, 18 h, antibiotic alone (Supplementary Table 7), read-out: MICantibiotic
Description: as §1

[7] = test system: MDR E. cloacae clinical isolates; assay: Resistance phenotype (MICs of antibiotics) of MDR clinical isolates; assay type: cell-based, Enterobacter cloacae; conditions: Enterobacter cloacae, read-out: MIC
[8] = test system: MDR E. coli clinical isolates; assay: as above; assay type: cell-based, Escherichia coli; conditions: Escherichia coli, read-out: MIC

| Compound | MIC ([1]; 113250, read-out: MIC) | MIC ([1]; 113254, read-out: MIC) | MIC ([1]; 116381, read-out: MIC) | MIC ([2]; 259-96196, read-out: MIC) | MIC ([2]; 262-101856, read-out: MIC) | MIC ([2]; 264-104354, read-out: MIC) | MIC ([2]; 114228, read-out: MIC) | MIC ([3]; LAC-4, read-out: MIC) | MICcombo [4] | MIC [4] | MICcombo [5] | MIC [5] | MICcombo [6] | MIC [6] | MIC [7]; 117029 | MIC ([8]; 94393 (mcr-1 +)) | MIC ([8]; 94474 (mcr-1 +)) | MIC [8]; 107115 | MIC [7]; 118564 | MIC [7]; 121187 | also measured |
| --- | --- | --- | --- | --- | --- | --- | --- | --- | --- | --- | --- | --- | --- | --- | --- | --- | --- | --- | --- | --- | --- |
| CN(C)c1ccc(O)c2c1C[C@H]1C[C@H]3[C@H](N(C)C)C(O)=C(C(N)=O)C(=O)[C@@]3(O)C(O)=C1C2=O [Minocycline] | 2 µg/mL (≈ 4.37 µM) | 2 µg/mL (≈ 4.37 µM) | 64 µg/mL (≈ 140 µM) | 32 µg/mL (≈ 69.9 µM) | 64 µg/mL (≈ 140 µM) | 32 µg/mL (≈ 69.9 µM) | 32 µg/mL (≈ 69.9 µM) | 4 µg/mL (≈ 8.74 µM) | 1 µg/mL | 16 µg/mL (≈ 35 µM) | 0.063 µg/mL | 0.5 µg/mL | 0.25 µg/mL | 0.5 µg/mL | 32 µg/mL (≈ 69.9 µM) | 2 µg/mL (≈ 4.37 µM) | 64 µg/mL (≈ 140 µM) | 32 µg/mL (≈ 69.9 µM) |  |  | MIC ([2]; 91433, read-out: MIC): 16 µg/mL (≈ 35 µM); MIC [3]: 0.125 µg/mL (≈ 0.273 µM); MIC ([3]; 110193, read-out: MIC): 1 µg/mL (≈ 2.19 µM); MIC ([3]; AB027, read-out: MIC): 0.25 µg/mL (≈ 0.546 µM); MIC ([3]; AB031, read-out: MIC): 0.25 µg/mL (≈ 0.546 µM) |
| COc1c(N2C[C@@H]3CCCN[C@@H]3C2)c(F)cc2c(=O)c(C(=O)O)cn(C3CC3)c12 [Moxifloxacin] | ≤ 0.06 µg/mL | ≤ 0.06 µg/mL | > 16 µg/mL | > 16 µg/mL | > 16 µg/mL | > 16 µg/mL |  |  | 0.5 µg/mL | 2 µg/mL (≈ 4.98 µM) | 0.001 µg/mL | 0.016 µg/mL | > 0.125 µg/mL | > 0.125 µg/mL | ≤ 0.06 µg/mL | 1 µg/mL (≈ 2.49 µM) | 16 µg/mL (≈ 39.9 µM) | 16 µg/mL (≈ 39.9 µM) | 0.12 µg/mL (≈ 0.299 µM) | 1 µg/mL (≈ 2.49 µM) | MIC ([2]; 91433, read-out: MIC): 16 µg/mL (≈ 39.9 µM); MIC ([3]; 110193, read-out: MIC): ≤ 1 µg/mL; MIC ([3]; AB027, read-out: MIC): 8 µg/mL (≈ 19.9 µM); MIC ([3]; AB031, read-out: MIC): 0.12 µg/mL (≈ 0.299 µM) |
| C[C@H]1[C@H](NC(=O)/C(=N\OC(C)(C)C(=O)O)c2csc(N)n2)C(=O)N1S(=O)(=O)O [Aztreonam] | ≤ 0.12 µg/mL | ≤ 0.12 µg/mL | 16 µg/mL (≈ 36.7 µM) | 32 µg/mL (≈ 73.5 µM) | 32 µg/mL (≈ 73.5 µM) | 64 µg/mL (≈ 147 µM) | 32 µg/mL (≈ 73.5 µM) |  | 4 µg/mL | 4 µg/mL (≈ 9.19 µM) | 0.063 µg/mL | 0.25 µg/mL | 32 µg/mL | 64 µg/mL | ≤ 0.12 µg/mL | ≤ 0.12 µg/mL | ≤ 0.12 µg/mL | > 64 µg/mL | ≤ 0.12 µg/mL | ≤ 0.12 µg/mL |  |
| C[C@H]1COc2c(N3CCN(C)CC3)c(F)cc3c(=O)c(C(=O)O)cn1c23 [Levofloxacin] |  |  |  | 256 µg/mL (≈ 708 µM) | 64 µg/mL (≈ 177 µM) | 64 µg/mL (≈ 177 µM) |  | 2 µg/mL (≈ 5.53 µM) | 0.25 µg/mL | 0.5 µg/mL (≈ 1.38 µM) | 0.002 µg/mL | 0.008 µg/mL | 0.25 µg/mL | 0.25 µg/mL |  | 1 µg/mL (≈ 2.77 µM) | 32 µg/mL (≈ 88.6 µM) | 32 µg/mL (≈ 88.6 µM) |  |  | MIC [1]; 113250: 0.125 µg/mL (≈ 0.346 µM); MIC [1]; 113254: 0.0625 µg/mL (≈ 0.173 µM); MIC [1]; 116381: 128 µg/mL (≈ 354 µM); MIC ([3]; 110193, read-out: MIC): ≤ 1 µg/mL; MIC ([3]; AB027, read-out: MIC): 8 µg/mL (≈ 22.1 µM); MIC ([3]; AB031, read-out: MIC): 0.25 µg/mL (≈ 0.692 µM) |
| CC(C)(O/N=C(\C(=O)N[C@@H]1C(=O)N2C(C(=O)[O-])=C(C[n+]3ccccc3)CS[C@H]12)c1csc(N)n1)C(=O)O [Ceftazidime] | 0.5 µg/mL (≈ 0.915 µM) | ≤ 0.2 µg/mL | 8 µg/mL (≈ 14.6 µM) |  | 16 µg/mL (≈ 29.3 µM) |  | 8 µg/mL (≈ 14.6 µM) | > 16 µg/mL | 2 µg/mL | 2 µg/mL (≈ 3.66 µM) | 0.063 µg/mL | 0.25 µg/mL | 8 µg/mL | 16 µg/mL | 0.5 µg/mL (≈ 0.915 µM) | ≤ 0.25 µg/mL | 0.5 µg/mL (≈ 0.915 µM) | > 32 µg/mL | 0.5 µg/mL (≈ 0.915 µM) | 0.5 µg/mL (≈ 0.915 µM) | MIC ([2]; 259-96196): 512 µg/mL (≈ 937 µM); MIC ([2]; 264-104354): 128 µg/mL (≈ 234 µM); MIC [2]; 91433: 1020 µg/mL (≈ 1870 µM) |
| NC[C@H]1O[C@H](O[C@H]2[C@H](O)[C@@H](O[C@H]3O[C@H](CO)[C@@H](O)[C@H](N)[C@H]3O)[C@H](N)C[C@@H]2N)[C@H](N)C[C@@H]1O [Tobramycin] | ≤ 0.5 µg/mL | ≤ 0.5 µg/mL | 4 µg/mL (≈ 8.56 µM) | 256 µg/mL (≈ 548 µM) | 1020 µg/mL (≈ 2190 µM) |  | 2 µg/mL (≈ 4.28 µM) | > 4 µg/mL | 1 µg/mL | 1 µg/mL (≈ 2.14 µM) | 1 µg/mL | 2 µg/mL | > 1 µg/mL | > 1 µg/mL | 2 µg/mL (≈ 4.28 µM) | ≤ 0.5 µg/mL | 32 µg/mL (≈ 68.4 µM) | 8 µg/mL (≈ 17.1 µM) | 1 µg/mL (≈ 2.14 µM) | 32 µg/mL (≈ 68.4 µM) | MIC ([2]; 264-104354): 128 µg/mL (≈ 274 µM); MIC ([2]; 91433, read-out: MIC): 16 µg/mL (≈ 34.2 µM) |
| COc1cc(Cc2cnc(N)nc2N)cc(OC)c1OC [Trimethoprim] |  |  |  |  |  |  |  |  | 32 µg/mL | 128 µg/mL (≈ 441 µM) | 64 µg/mL | 512 µg/mL | > 128 µg/mL | > 128 µg/mL |  |  |  |  |  |  |  |
| CC[C@H]1OC(=O)[C@H](C)[C@@H](O[C@H]2C[C@@](C)(OC)[C@@H](O)[C@H](C)O2)[C@H](C)[C@@H](O[C@@H]2O[C@H](C)C[C@H](N(C)C)[C@H]2O)[C@](C)(O)C[C@@H](C)C(=O)[C@H](C)[C@@H](O)[C@]1(C)O [Erythromycin] |  |  |  |  |  |  |  |  |  | 256 µg/mL (≈ 349 µM) | 0.25 µg/mL | 64 µg/mL | 1 µg/mL | 16 µg/mL |  |  |  |  |  |  |  |
